Legend:
[1] = tested on: human mesenchymal stem cells; assay: Survival/attachment of human mesenchymal stem cells, compound present during plating; format: cell-based; settings: 5-10 μM, 10% or 2% serum, 24 h
Description: Bone marrow aspirates were taken from normal adult donors signed after informed consent according to a protocol approved by the appropriate Ethics Committee. For the preparation of bone marrow mesenchymal stem cells, essentially a widely used technique was used as described earlier by others [Pittenger, M. F., Mackay, A. M., Beck, S. C., Jaiswal, R. K., Douglas, R., Mosca, J. D., Moorman, M. A., Simonetti, D. W., Craig, S, and Marshak, D. R., Multilineage potential of adult human mesenchymal stem cells (1999) Science 284, 143-147]. Briefly, nucleated cells were isolated with a pre-prepared commercial density gradient (Lymphoprep, Nycomed, Pharma, Oslo, Norway) and resuspended in Dulbecco's modified Eagle's medium (DMEM) (GIBCO, Grand Island, N.Y.) supplemented with 10% fetal calf serum (FCS), 50 U/ml of penicillin, and 50 μg/ml of streptomycin (GIBCO). All nucleated cells were plated in 25-cm^2 flasks (BD Falcon, Bedford, Mass.) at 37° C. in humidified atmosphere containing 5% CO2. […] When cells grew to about 80% confluence, they were suspended and harvested by incubating with a ready-made solution containing 0.25% trypsin and 1 mM EDTA (Sigma-Aldrich, St. Louis, Mo.) for 5 minutes at 37° C.; this cell suspension is designated as passage 1. […]
The total numbers of nucleated and viable cells were determined with a hemocytometer, using Turck's solution and trypan blue stain, respectively. […]

L-arginine-treated rats = assay: L-arginine-treated rat model of necrotic pancreatitis; format: in vivo
Description: L-arginine-treated rats are frequently used experimental tools to model necrotic pancreatitis [Krajewski, E., Krajewski, J., Spodnik, J. H., Figarski, A. and Kunasik-Juraniec, J. (2005) Changes in the morphology of the acinar cells of the rat pancreas in the oedematous and nectoric types of experimental acute pancreatitis. Folia Morphol. 64, 292-303]. L-arginine is a precursor of NO which primarily destroys the exocrine pancreas with subsequent damage of insulin producing islet cells. Just like pancreatitis is often associated with elevated blood glucose level in human patients, extensive damage of pancreas in the L-arginine-treated animal model also results in damaged function of β-cells as indicated by higher blood glucose levels. In this example, the L-arginine-treated rat model was employed to see if CCompound1 could also prevent or reduce deterioration of β-cell function and the damage of the exocrine pancreas.
Male Wistar rats weighing 220-250 g were divided into four groups, each group consisting of 6 animals. To ensure standard conditions animals were starved for 16 hours before the start of the experiment. CCompound1 was first injected 24 hours prior to L-arginine injection, followed by similar daily injections for 5 consecutive days. In the first group, rats remained untreated. On day 0, animals in groups 2-4 were injected 2×2.5 g/kg L-arginine i.p. at one hour intervals. Animals in group 4 also received daily s.c. injection of 4.5 mg/kg of CCompound1 between days −1 and 5. To verify development of acute pancreatitis, 24 hours after L-arginine injections rats in group 2 were anesthetized with 45 mg/kg pentobarbital i.p. and exsanguinated through the abdominal aorta. On day 0, 2, 4 and 6 blood sugar values of the experimental animals were measured after fasting for 8 hours with the C-test; blood samples were taken from the tail. Edema of the pancreatic tissue was assessed by the pancreatic weight/body weight ratio. The animals in the remaining groups were sacrificed on day 7.
For histological examinations, a portion of the head of the pancreas was fixed in 4% neutral formaldehyde solution and embedded in paraffin. Tissue slices were stained with hematoxylin and eosin and examined by light microscopy. Slices were coded and examined blind by a pathologist for the grading of histological alterations. The extent and intensity of pancreatic edema, leukocyte infiltration, acinar vacuolization, hyperemia and tubular transformation were described with scores ranging from 0 to 3. The total histological damage was calculated by adding the scores for the various below listed parameters together.
Hyperemia; defined as the amount of red blood cells in the vessels.
Edema; defined as the widening of interstitial space.
Vacuolization; defined as the formation of vacuoles in the cytoplasm of acinar cells. Vacuolization results from the fusion of zymogene granules and lysosomes.
Inflammation; defined and quantified by the infiltration of the tissue with mononuclear inflammatory cells (lymphocytes, plasma cells, and mast cells).
Necrosis; defined as the measure of the extent of the destruction of normal pancreatic tissue structure.
Tubular transformation; defined as desquamation of acinar cell apical cytoplasm and release of cytoplasm segments into the acinar lumen leading to formation of duct-like tubular complexes. (Elsässer H. P., Adler G and Kern H. F. (1986) Time course and cellular source of pancreatic regeneration following acute pancreatitis in the rat. Pancreas 1 (5) 421-9).
Total histological damage (total damage); defined and calculated by combining the histological scores of the above mentioned parameters (except vacuolization). This value is the generally accepted best representation of the severity of pancreatitis in the art. […]

[2] = L-arginine + compound, pancreas, day 7

In the case of Cc1c(OCC(O)C[N+](C)(C)C)cc2c(=O)c3ccccc3sc2c1C.[Cl-] (stereo not shown) [CCcompound1, [3-(3,4-Dimethyl-9-oxo-9H-thioxanthen-2-yloxy)-2-hydroxypropyl]trimethyl-ammonium chloride], the “effect on number of attached cells” value [1] is reported as “enhanced the number of attached cells”, the “effect on L-arginine-stimulated blood glucose” value (L-arginine-treated rats; 4.5 mg/kg s.c. daily) is reported as “reduced L-arginine-stimulated blood glucose to control level” and the “Blood glucose” value (L-arginine-treated rats; L-arginine 2×2.5 g/kg i.p. day 0 + compound 4.5 mg/kg s.c. daily days −1 to 5, fasted 8 h, day 0) is reported as 6.28 ± 0.31 mM. The “effect on tissue necrosis” value (L-arginine-treated rats; L-arginine + compound) was “significant reduction in tissue necrosis”, the “Blood glucose” value (L-arginine-treated rats; L-arginine + compound 4.5 mg/kg s.c. daily, fasted 8 h, day 2) was 6.46 ± 0.33 mM and the “Blood glucose” value (L-arginine-treated rats; L-arginine + compound 4.5 mg/kg s.c. daily, fasted 8 h, day 4) was 6.26 ± 0.21 mM. For the same compound, the “Blood glucose” value (L-arginine-treated rats; L-arginine + compound 4.5 mg/kg s.c. daily, fasted 8 h, day 6) was 6.00 ± 0.49 mM, the “insulin staining score (scale 0 to 3)” value (L-arginine-treated rats; L-arginine + compound, day 7, immunohistochemistry of pancreas) was 2.45±0.30 and the “Edema histological score (0 to 3)” value (L-arginine-treated rats; [2]) was 1.33 ± 0.21. The “Hyperemia histological score (0 to 3)” value (L-arginine-treated rats; [2]) was 1.17 ± 0.17, the “Inflammation histological score (0 to 3)” value (L-arginine-treated rats; [2]) was 2.00 ± 0.00 and the “Necrosis histological score (0 to 3)” value (L-arginine-treated rats; [2]) was 1.25 ± 0.36. For the same compound, the “Total damage (sum of histological scores except vacuolization)” value (L-arginine-treated rats; [2]) was 7.75 ± 0.70, the “Tubular transformation histological score (0 to 3)” value (L-arginine-treated rats; [2]) was 2.00 ± 0.37 and the “Vacuolization histological score (0 to 3)” value (L-arginine-treated rats; [2]) was 1.17 ± 0.17. The “protection of endocrine and exocrine pancreatic cells” value (L-arginine-treated rats; L-arginine-induced necrotic pancreatitis model) was “partially or fully protected both the endocrine and exocrine pancreatic cells”.
